Data reported in US20140105829A1, “THERAPEUTIC NANOEMULSION FORMULATION FOR THE TARGETED DELIVERY OF DOCETAXEL AND METHODS OF MAKING AND USING THE SAME” (Nemucore Medical Innovations, Inc., priority 2012, published 2014).

Key:
[1] = Dose range finding plasma pharmacokinetic study; type: in vivo; details: CD-1 mice, iv; for AUC0-∞ / AUClast / Cl / Cmax / MRT / Tmax / Vd / t1/2: plasma docetaxel
Description: A dose range finding (DRF) study was conducted to determine the pharmacokinetic profile of folate receptor-targeted nanoemulsion formulations according to the disclosure administered to CD-1 mice at dose levels ranging from 1 mg/kg to 10 mg/kg. […] Blood was collected at 5 min, 30 min, 1 hr, 2 hr, 4 hr, 6 hr, 8 hr, 12 hr, and 24 hr after injection. Docetaxel concentration in the plasma was measured using a liquid chromatography-mass spectrometer (LC-MS/MS).
Pharmacokinetic parameters were calculated by non-compartmental analysis using Phoenix WinNonlin 6.2 version.

[2] = tested on: SKOV3 cells; assay: MTT cytotoxicity assay, SKOV3; type: cell-based, human; details: 72 hr treatment, mean±SD, n=8
Description: (§1) A tetrazolium (MTT) assay was performed, which measures the activity of cellular enzymes that reduces the MTT dye to insoluble formazan. SKOV3 and SKOV3TR cells were treated with corresponding test nanoemulsions or control solutions as indicated below in Table V. Polyethylenimine at 50 μg/ml was used as a positive control for cytotoxicity. […] After the completion of treatment, cells were incubated with MTT reagent (50 μg/well) for 2 hr, the resulting formazan crystals were dissolved in dimethyl sulfoxide ([…]) and measured at 570 nm in the Plate reader (Synergy HT, Biotek Instruments, Winooski, Vt.).
(§2) All IC50 values were obtained by analyzing the MTT assays results using Graphpad Prism 5 scientific data analysis software.

[3] = tested on: SKOV3TR cells; assay: MTT cytotoxicity assay, SKOV3TR; type: cell-based, human; details: 72 hr treatment, mean±SD, n=8, Pgp-expressing multidrug resistant cells
Description: In order to determine if the nanoemulsion formulations according to the disclosure produce a cytotoxic effect, the following experiments were done on SKOV3 and SKOV3TR cells. SKOV3TR cells express P-glycoprotein (Pgp), which produces chemotherapeutic agent efflux out of the cell and is associated with multidrug resistant cancer cells.
as §1, §2

[4] = tested on: subcutaneous SKOV3 tumors; design: species or system Nu/Nu mice; details: mouse, in vivo, iv
Source text: Three female Nu/Nu mice (Charles River Laboratories, Cambridge, Mass.) each weighing approximately 20 g and bearing subcutaneous SKOV3 tumors (human ovary cancer cells, American Type Culture Collection (ATCC), Manassas, Va.) […], were used as test subjects. The first mouse was intravenously injected with gadopentetic acid containing a 0.072 mmol/kg dose of Gd-DTPA-PE (Magnevist™). The second mouse was intravenously injected with a non-targeted Gd-labeled nanoemulsion formulation of the present disclosure containing a 0.072 mmol/kg dose of Gd-DTPA-PE. The third mouse was intravenously injected with a folate receptor-targeted Gd-labeled nanoemulsion formulation of the present disclosure containing a 0.072 mmol/kg dose of the gadolinium-based MRI contrasting agent Gd-DTPA-PE. All three mice were full body scanned and imaged using a Bruker Biospec 20/70 MRI machine over a period of 24 hr.

[5] = 1 mg/kg docetaxel as folate receptor-targeted nanoemulsion formulation
[6] = 5 mg/kg docetaxel as folate receptor-targeted nanoemulsion formulation
[7] = 10 mg/kg docetaxel as folate receptor-targeted nanoemulsion formulation

## docetaxel [Docetaxel in solution]
[1]; [5]
  AUC0-∞: 475 ± 34 ng·h/mL
  AUClast: 789 ± 667 ng·h/mL
  Cl: 35.17 ± 2.55 mL/min/kg
  Cmax: 2125 ± 1181 ng/mL
  MRT: 1.53 ± 0.3 h
  Tmax: 4.98 min
  Vd: 13.275 ± 7.029 L/kg
  t1/2: 4.29 ± 2 h
[1]; 1 mg/kg to 10 mg/kg, folate receptor-targeted nanoemulsion formulation
  dose dependence of plasma docetaxel pharmacokinetics: linear pharmacokinetics from 1 mg/kg to 5 mg/kg
[1]; [6]
  AUC0-∞: 19095 ± 24050 ng·h/mL
  AUClast: 19026 ± 24077 ng·h/mL
  Cl: 15.4 ± 16.77 mL/min/kg
  Cmax: 38267 ± 31757 ng/mL
  MRT: 2.25 ± 0.5 h
  Tmax: 4.98 min
  Vd: 9.074 ± 12.083 L/kg
  t1/2: 4.9 ± 2.6 h
[1]; [7]
  AUC0-∞: 16719 ± 28251 ng·h/mL
  AUClast: 16653 ± 28251 ng·h/mL
  Cl: 16 ± 12.5 mL/min/kg
  Cmax: 52229 ± 28251 ng/mL
  MRT: 2.6 ± 1 h
  Tmax: 4.98 min
  Vd: 5.801 ± 5.151 L/kg
  t1/2: 3.7 ± 1 h
[2]
  IC50: 1 ± 1.3 nM
[3]
  IC50: 27000 nM

## CNC[C@H](O)[C@@H](O)[C@H](O)[C@H](O)CO.CNC[C@H](O)[C@@H](O)[C@H](O)[C@H](O)CO.O=C([O-])CN(CCN(CC(=O)[O-])CC(=O)O)CCN(CC(=O)[O-])CC(=O)O.[Gd+3] [Magnevist, gadopentetic acid]
[4]
  time by which tumor signal cleared to near baseline: ≤ 6 h
